32 compounds from US8471005B2 (Cephalon, Inc., priority 2008, dated 2013) can be followed below.

One experiment concerns the target T1, ALK (Homo sapiens, UniProt Q9UM73).
T1 construct: host or cells: baculovirus expression system
In words: ALK Kinase Assay (ELISA/TRF, PLC-γ substrate). The experiment is classed as biochemical. The note with it: ALK Kinase Inhibition; read-out: ALK Potency. Summed up: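 Time-resolved fluorescence ELISA using Eu-N1 PT66 antibody to detect phosphorylated PLC-γ (coated at 10 μg/mL). Enzyme at 30 ng/ml ALK; 15 min incubation, 37° C.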
A general note: ELISA stands for enzyme-linked immunosorbent assay.

In a further experiment the target is T2, JAK2 (Homo sapiens, UniProt O60674).
T2 construct: host or cells: baculovirus expression system
Description: Recombinant Human JAK2 Kinase Assay (TRF). The experiment is classed as biochemical. As to conditions: JAK2 Kinase Inhibition; read-out: JAK2 Potency. An outline of the steps: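 Baculovirus-expressed JAK2 (15 ng/ml) phosphorylated a biotinylated 15-mer peptide captured on Neutravidin-coated plates, in 20 mM HEPES pH 7.2 with 0.2 μM ATP, 1 mM MnCl2, 0.1% BSA and 2.5% DMSO. Reaction ran 20 min at room temperature; phosphopeptide was detected by time-resolved fluorescence with Eu-N1-labelled PY100 antibody.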

T1 sequence (Q9UM73 19-1620): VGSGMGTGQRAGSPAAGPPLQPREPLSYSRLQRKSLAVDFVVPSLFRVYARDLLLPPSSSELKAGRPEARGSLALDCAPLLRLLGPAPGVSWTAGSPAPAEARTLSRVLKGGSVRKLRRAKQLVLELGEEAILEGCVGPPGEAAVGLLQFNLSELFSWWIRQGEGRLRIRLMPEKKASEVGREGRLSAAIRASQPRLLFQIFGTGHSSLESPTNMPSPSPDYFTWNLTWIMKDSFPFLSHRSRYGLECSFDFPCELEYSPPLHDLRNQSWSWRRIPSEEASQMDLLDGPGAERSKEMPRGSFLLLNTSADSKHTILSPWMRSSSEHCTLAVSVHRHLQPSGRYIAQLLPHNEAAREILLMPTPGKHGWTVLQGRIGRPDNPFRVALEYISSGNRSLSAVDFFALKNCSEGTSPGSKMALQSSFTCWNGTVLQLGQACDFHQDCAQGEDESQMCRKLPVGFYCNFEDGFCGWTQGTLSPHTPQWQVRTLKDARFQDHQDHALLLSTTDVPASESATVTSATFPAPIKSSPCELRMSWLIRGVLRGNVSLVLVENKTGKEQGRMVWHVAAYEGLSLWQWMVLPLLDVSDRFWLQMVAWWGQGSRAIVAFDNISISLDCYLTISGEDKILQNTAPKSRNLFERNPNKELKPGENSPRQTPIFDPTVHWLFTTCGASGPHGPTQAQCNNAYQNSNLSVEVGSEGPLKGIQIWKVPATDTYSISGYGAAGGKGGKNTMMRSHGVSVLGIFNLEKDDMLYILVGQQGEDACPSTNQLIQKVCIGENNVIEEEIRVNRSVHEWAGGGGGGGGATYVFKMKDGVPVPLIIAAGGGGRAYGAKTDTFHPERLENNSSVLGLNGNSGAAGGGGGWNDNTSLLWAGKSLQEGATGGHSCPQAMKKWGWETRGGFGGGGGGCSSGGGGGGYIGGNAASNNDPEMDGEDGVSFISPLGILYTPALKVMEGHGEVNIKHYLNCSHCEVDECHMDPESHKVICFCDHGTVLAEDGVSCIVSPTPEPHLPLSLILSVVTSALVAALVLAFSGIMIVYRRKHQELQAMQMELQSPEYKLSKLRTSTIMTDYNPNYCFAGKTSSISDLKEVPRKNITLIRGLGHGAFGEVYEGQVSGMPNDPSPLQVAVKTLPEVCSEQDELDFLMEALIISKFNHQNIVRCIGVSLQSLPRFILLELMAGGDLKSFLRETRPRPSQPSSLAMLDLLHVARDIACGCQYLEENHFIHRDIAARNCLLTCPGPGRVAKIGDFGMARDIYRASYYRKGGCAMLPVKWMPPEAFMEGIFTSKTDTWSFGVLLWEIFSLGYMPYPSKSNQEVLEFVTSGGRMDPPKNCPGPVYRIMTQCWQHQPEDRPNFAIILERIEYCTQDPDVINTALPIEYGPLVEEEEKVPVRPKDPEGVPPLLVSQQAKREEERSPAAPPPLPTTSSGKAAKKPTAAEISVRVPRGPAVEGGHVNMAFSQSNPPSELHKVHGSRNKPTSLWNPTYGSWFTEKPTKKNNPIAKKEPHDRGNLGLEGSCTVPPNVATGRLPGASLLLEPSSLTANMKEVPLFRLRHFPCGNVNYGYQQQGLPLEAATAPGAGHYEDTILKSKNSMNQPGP
T2 sequence (O60674 whole entry): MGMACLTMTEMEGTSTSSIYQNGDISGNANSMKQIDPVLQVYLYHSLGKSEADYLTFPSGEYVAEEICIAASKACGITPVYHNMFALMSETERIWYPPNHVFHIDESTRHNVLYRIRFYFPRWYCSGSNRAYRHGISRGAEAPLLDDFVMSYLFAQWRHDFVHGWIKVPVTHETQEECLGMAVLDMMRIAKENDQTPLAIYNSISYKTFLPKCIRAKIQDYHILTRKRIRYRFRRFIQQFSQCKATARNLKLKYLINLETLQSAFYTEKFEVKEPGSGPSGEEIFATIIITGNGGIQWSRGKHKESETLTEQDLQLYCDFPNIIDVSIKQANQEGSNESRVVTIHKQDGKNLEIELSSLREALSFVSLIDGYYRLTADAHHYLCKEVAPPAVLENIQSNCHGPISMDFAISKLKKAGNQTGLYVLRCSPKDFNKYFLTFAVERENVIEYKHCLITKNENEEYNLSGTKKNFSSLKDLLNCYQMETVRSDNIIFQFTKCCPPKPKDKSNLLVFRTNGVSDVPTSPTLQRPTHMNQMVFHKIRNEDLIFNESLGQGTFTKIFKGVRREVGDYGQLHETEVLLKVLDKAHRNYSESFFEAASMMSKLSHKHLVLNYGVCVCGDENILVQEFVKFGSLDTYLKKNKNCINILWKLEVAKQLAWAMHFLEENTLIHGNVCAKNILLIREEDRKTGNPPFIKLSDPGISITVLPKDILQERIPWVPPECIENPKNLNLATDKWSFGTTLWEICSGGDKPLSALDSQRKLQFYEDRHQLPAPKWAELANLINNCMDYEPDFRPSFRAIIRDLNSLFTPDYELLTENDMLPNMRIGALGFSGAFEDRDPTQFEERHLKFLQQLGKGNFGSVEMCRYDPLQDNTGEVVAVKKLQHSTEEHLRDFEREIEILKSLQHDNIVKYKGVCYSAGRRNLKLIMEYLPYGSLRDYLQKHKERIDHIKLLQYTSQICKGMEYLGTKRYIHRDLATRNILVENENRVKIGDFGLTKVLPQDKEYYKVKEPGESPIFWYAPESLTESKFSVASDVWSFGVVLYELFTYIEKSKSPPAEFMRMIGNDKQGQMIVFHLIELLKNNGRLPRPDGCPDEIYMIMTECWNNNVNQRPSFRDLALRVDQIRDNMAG

As for `CN1CCN(c2ccc(Nc3ncc4ccc(C5CCCCC5)n4n3)cc2)CC1` [Example 123, (7-Cyclohexyl-pyrrolo[2,1-f][1,2,4]triazin-2-yl)-[4-(4-methyl-piperazin-1-yl)-phenyl]-amine], the IC50 at ALK was 100 to 1000 nM; on JAK2 it was under 100 nM.

Consider `c1cncc(-c2ccc3cnc(Nc4cc[nH]n4)nn23)c1` [Example 124, (1H-Pyrazol-3-yl)-(7-pyridin-3-yl-pyrrolo[2,1-f][1,2,4]triazin-2-yl)-amine], for which the IC50 on ALK was 1000 to 10000 nM; on JAK2 it was under 100 nM.

With `c1cncc(-c2ccc3cnc(Nc4ccc(OCCN5CCOCC5)cc4)nn23)c1` [Example 125, [4-(2-Morpholin-4-yl-ethoxy)-phenyl]-(7-pyridin-3-yl-pyrrolo[2,1-f][1,2,4]triazin-2-yl)-amine], the results for the IC50 at ALK and at JAK2 were 100 to 1000 nM and under 100 nM, respectively.

Consider `c1cc(N2CCOCC2)ccc1Nc1ncc2ccc(C3CCCCC3)n2n1` [Example 127, (7-Cyclohexyl-pyrrolo[2,1-f][1,2,4]triazin-2-yl)-(4-morpholin-4-yl-phenyl)-amine], for which the IC50 at ALK was over 10000 nM; on JAK2 it was under 100 nM.

For `COc1ccccc1-c1ccc2cnc(Nc3ccc(OCCN4CCOCC4)cc3)nn12` [Example 128, [7-(2-Methoxy-phenyl)-pyrrolo[2,1-f][1,2,4]triazin-2-yl]-[4-(2-morpholin-4-yl-ethoxy)-phenyl]-amine], the IC50 on ALK and at JAK2 was under 100 nM each time.

For the compound `COc1ccc(Cl)cc1-c1ccc2cnc(Nc3cc(OC)c(OC)c(OC)c3)nn12` [Example 141, [7-(5-Chloro-2-methoxy-phenyl)-pyrrolo[2,1-f][1,2,4]triazin-2-yl]-(3,4,5-trimethoxy-phenyl)-amine], the IC50 on ALK was 100 to 1000 nM; at JAK2, under 100 nM.

As to `COc1ccccc1-c1ccc2cnc(Nc3cc(OC)c(OC)c(OC)c3)nn12` [Example 142, [7-(2-Methoxy-phenyl)-pyrrolo[2,1-f][1,2,4]triazin-2-yl]-(3,4,5-trimethoxy-phenyl)-amine], the IC50 at ALK was 100 to 1000 nM; on JAK2, under 100 nM.

In the case of `COc1cc(Nc2ncc3ccc(-c4cccc(Cl)c4)n3n2)cc(OC)c1OC` [Example 143, [7-(3-Chloro-phenyl)-pyrrolo[2,1-f][1,2,4]triazin-2-yl]-(3,4,5-trimethoxy-phenyl)-amine], the values for the IC50 on ALK and on JAK2 were 100 to 1000 nM and under 100 nM, respectively.

In the case of `COc1cccc(Nc2ncc3ccc(-c4cc(Cl)ccc4OC)n3n2)c1` [Example 144, [7-(5-Chloro-2-methoxy-phenyl)-pyrrolo[2,1-f][1,2,4]triazin-2-yl]-(3-methoxy-phenyl)-amine], the values for the IC50 on ALK and at JAK2 were 1000 to 10000 nM and under 100 nM, respectively.

With `COc1cccc(Nc2ncc3ccc(-c4ccccc4OC)n3n2)c1` [Example 145, (3-Methoxy-phenyl)-[7-(2-methoxy-phenyl)-pyrrolo[2,1-f][1,2,4]triazin-2-yl]-amine], the IC50 at ALK was 1000 to 10000 nM; on JAK2, under 100 nM.

With `COc1cccc(Nc2ncc3ccc(-c4cccc(Cl)c4)n3n2)c1` [Example 146, [7-(3-Chloro-phenyl)-pyrrolo[2,1-f][1,2,4]triazin-2-yl]-(3-methoxy-phenyl)-amine], the IC50 on ALK is over 10000 nM; at JAK2, under 100 nM.

As to `Clc1cccc(-c2ccc3cnc(Nc4cccc(N5CCOCC5)c4)nn23)c1` [Example 148, [7-(3-Chloro-phenyl)-pyrrolo[2,1-f][1,2,4]triazin-2-yl]-(3-morpholin-4-yl-phenyl)-amine], the IC50 on ALK was 1000 to 10000 nM; at JAK2, under 100 nM.

As to `COc1ccccc1-c1ccc2cnc(Nc3ccc4c(c3)OCO4)nn12` [Example 149, 1,3-Benzodioxol-5-yl-[7-(2-methoxy-phenyl)-pyrrolo[2,1-f][1,2,4]triazin-2-yl]-amine], the IC50 on ALK is 100 to 1000 nM; at JAK2, under 100 nM.

With `Clc1cccc(-c2ccc3cnc(Nc4ccc5c(c4)OCO5)nn23)c1` [Example 150, 1,3-Benzodioxol-5-yl-[7-(3-chloro-phenyl)-pyrrolo[2,1-f][1,2,4]triazin-2-yl]-amine], the figures for the IC50 at ALK and at JAK2 were over 10000 nM and under 100 nM, respectively.

Regarding `COc1ccc(Nc2ncc3ccc(-c4cc(Cl)ccc4OC)n3n2)cc1OC` [Example 151, [7-(5-Chloro-2-methoxy-phenyl)-pyrrolo[2,1-f][1,2,4]triazin-2-yl]-(3,4-dimethoxy-phenyl)-amine], the IC50 on ALK was 100 to 1000 nM; on JAK2, under 100 nM.

For the compound `COc1ccc(Nc2ncc3ccc(-c4cccc(Cl)c4)n3n2)cc1OC` [Example 152, [7-(3-Chloro-phenyl)-pyrrolo[2,1-f][1,2,4]triazin-2-yl]-(3,4-dimethoxy-phenyl)-amine], the IC50 is 1000 to 10000 nM at ALK and under 100 nM at JAK2.

Consider `COc1ccc(Nc2ncc3ccc(-c4cc(Cl)ccc4OC)n3n2)cc1` [Example 153, [7-(5-Chloro-2-methoxy-phenyl)-pyrrolo[2,1-f][1,2,4]triazin-2-yl]-(4-methoxy-phenyl)-amine], for which the IC50 was over 10000 nM on ALK and under 100 nM at JAK2.

With `COc1ccc(Nc2ncc3ccc(-c4cccc(Cl)c4)n3n2)cc1` [Example 155, [7-(3-Chloro-phenyl)-pyrrolo[2,1-f][1,2,4]triazin-2-yl]-(4-methoxy-phenyl)-amine], the IC50 at ALK is over 10000 nM; at JAK2, under 100 nM.

In the case of `COc1cc(Nc2ncc3ccc(-c4cccc(Cl)c4)n3n2)cc(OC)c1` [Example 156, [7-(3-Chloro-phenyl)-pyrrolo[2,1-f][1,2,4]triazin-2-yl]-(3,5-dimethoxy-phenyl)-amine], the IC50 on ALK was over 10000 nM; at JAK2 it was under 100 nM.

In the case of `COc1cc(Nc2ncc3ccc(-c4cc(Cl)ccc4OC)n3n2)cc(OC)c1` [Example 157, [7-(5-Chloro-2-methoxy-phenyl)-pyrrolo[2,1-f][1,2,4]triazin-2-yl]-(3,5-dimethoxy-phenyl)-amine], the IC50 at ALK is 100 to 1000 nM; on JAK2 it was under 100 nM.

`COc1cc(Nc2ncc3ccc(-c4ccccc4OC)n3n2)cc(OC)c1` [Example 158, (3,5-Dimethoxy-phenyl)-[7-(2-methoxy-phenyl)-pyrrolo[2,1-f][1,2,4]triazin-2-yl]-amine]: the IC50 on ALK was 100 to 1000 nM; at JAK2 it was under 100 nM.

On to `CN(C)c1cccc(Nc2ncc3ccc(-c4cccc(Cl)c4)n3n2)c1` [Example 159, N-[7-(3-Chloro-phenyl)-pyrrolo[2,1-f][1,2,4]triazin-2-yl]-N′,N′-dimethyl-benzene-1,3-diamine], for which the IC50 is over 10000 nM at ALK and 1000 to 10000 nM at JAK2.

Regarding `CN1CCN(c2cccc(Nc3ncc4ccc(-c5cccc(Cl)c5)n4n3)c2)CC1` [Example 161, [7-(3-Chloro-phenyl)-pyrrolo[2,1-f][1,2,4]triazin-2-yl]-[3-(4-methyl-piperazin-1-yl)-phenyl]-amine], the IC50 at ALK was 100 to 1000 nM; on JAK2 it was under 100 nM.

Consider `COc1cc(Nc2ncc3ccc(-c4ccc(S(C)(=O)=O)cc4)n3n2)cc(OC)c1OC` [Example 162, [7-(4-Methanesulfonyl-phenyl)-pyrrolo[2,1-f][1,2,4]triazin-2-yl]-(3,4,5-trimethoxy-phenyl)-amine], for which the IC50 at ALK was 100 to 1000 nM; on JAK2 it was under 100 nM.

For the compound `CS(=O)(=O)c1ccc(-c2ccc3cnc(Nc4cccc(N5CCOCC5)c4)nn23)cc1` [Example 163, [7-(4-Methanesulfonyl-phenyl)-pyrrolo[2,1-f][1,2,4]triazin-2-yl]-(3-morpholin-4-yl-phenyl)-amine], the figures for the IC50 at ALK and at JAK2 were 1000 to 10000 nM and under 100 nM, respectively.

Turning to `COc1ccccc1-c1ccc2cnc(Nc3cccc(C(N)=O)c3)nn12` [Example 164, 3-[7-(2-Methoxy-phenyl)-pyrrolo[2,1-f][1,2,4]triazin-2-ylamino]-benzamide], the IC50 was 100 to 1000 nM at ALK and under 100 nM at JAK2.

For the compound `NC(=O)c1cccc(Nc2ncc3ccc(-c4cccc(Cl)c4)n3n2)c1` [Example 165, 3-[7-(3-Chloro-phenyl)-pyrrolo[2,1-f][1,2,4]triazin-2-ylamino]-benzamide], the IC50 on ALK is 1000 to 10000 nM; on JAK2 it was under 100 nM.

Regarding `COc1ccc(Cl)cc1-c1ccc2cnc(Nc3cccc(C(N)=O)c3)nn12` [Example 166, 3-[7-(5-Chloro-2-methoxy-phenyl)-pyrrolo[2,1-f][1,2,4]triazin-2-ylamino]-benzamide], the values for the IC50 on ALK and on JAK2 were 1000 to 10000 nM and under 100 nM, respectively.

As for `Clc1cccc(-c2ccc3cnc(Nc4ccc(N5CCCC5)cc4)nn23)c1` [Example 167, [7-(3-Chloro-phenyl)-pyrrolo[2,1-f][1,2,4]triazin-2-yl]-(4-pyrrolidin-1-yl-phenyl)-amine], the IC50 on ALK was 1000 to 10000 nM; at JAK2 it was under 100 nM.

For the compound `COc1ccc(Cl)cc1-c1ccc2cnc(Nc3ccc(N4CCCC4)cc3)nn12` [Example 168, [7-(5-Chloro-2-methoxy-phenyl)-pyrrolo[2,1-f][1,2,4]triazin-2-yl]-(4-pyrrolidin-1-yl-phenyl)-amine], the IC50 is 1000 to 10000 nM at ALK and under 100 nM on JAK2.

With `COc1ccccc1-c1ccc2cnc(Nc3ccc(N4CCCC4)cc3)nn12` [Example 169, [7-(2-Methoxy-phenyl)-pyrrolo[2,1-f][1,2,4]triazin-2-yl]-(4-pyrrolidin-1-yl-phenyl)-amine], the values for the IC50 on ALK and at JAK2 were 100 to 1000 nM and under 100 nM, respectively.

On to `COc1ccccc1-c1ccc2cnc(Nc3ccc4[nH]ccc4c3)nn12` [Example 170, (1H-Indol-5-yl)-[7-(2-methoxy-phenyl)-pyrrolo[2,1-f][1,2,4]triazin-2-yl]-amine], for which the IC50 was 1000 to 10000 nM at ALK and under 100 nM at JAK2.
